Test: xn = mol fraction of the nth substance listed
Settings: 101 kPa, Liquid; for speed of sound: Pulse-echo method; for mass density: Vibrating tube method

BrCBr [dibromomethane] + CCCCCCC
Settings	mass density, 293.15 K [kg/m3]	mass density, 298.15 K [kg/m3]	mass density, 303.15 K [kg/m3]	mass density, 308.15 K [kg/m3]	mass density, 313.15 K [kg/m3]	speed of sound, 293.15 K [m/s]	speed of sound, 298.15 K [m/s]	speed of sound, 303.15 K [m/s]	speed of sound, 308.15 K [m/s]	speed of sound, 313.15 K [m/s]
x1 = 0.0504	727.59	723.09	718.56	714	709.41	1128.1	1107.3	1086.4	1065.7	1045.1
x1 = 0.1039	776.8	772.01	767.19	762.36	757.48	1104.9	1084.7	1064.4	1044.3	1024.3
x1 = 0.1552	826.84	821.77	816.67	811.54	806.36	1084	1064.4	1044.8	1025.2	1005.6
x1 = 0.2037	877.02	871.66	866.26	860.84	855.37	1065.7	1046.5	1027.3	1008.2	989
x1 = 0.2532	931.38	925.72	920.03	914.3	908.53	1048.3	1029.7	1010.9	992.3	973.7
x1 = 0.3019	988.09	982.12	976.09	970.04	963.95	1032.4	1014.2	995.8	977.6	959.6
x1 = 0.354	1052.94	1046.61	1040.23	1033.82	1027.38	1016.7	999.1	981.2	963.5	946
x1 = 0.4022	1117.05	1110.37	1103.65	1096.88	1090.09	1003.5	986.1	968.8	951.5	934.5
x1 = 0.4552	1192.54	1185.46	1178.34	1171.15	1163.95	990.1	973.2	956.4	939.6	923
x1 = 0.4962	1254.87	1247.47	1240.03	1232.54	1225	980.6	964.2	947.8	931.2	914.8
x1 = 0.5532	1347.9	1339.98	1332.06	1324.08	1316.09	969.3	953.3	937.4	921.4	905.5
x1 = 0.6119	1452.49	1444.09	1435.65	1427.16	1418.62	959.2	943.8	928.3	912.9	897.5
x1 = 0.6543	1534.18	1525.37	1516.52	1507.63	1498.69	953.4	938.2	923.1	908	893
x1 = 0.7032	1635.75	1626.46	1617.14	1607.76	1598.32	948	933.3	918.6	903.9	889.2
x1 = 0.7514	1744.18	1734.39	1724.55	1714.66	1704.72	944.6	930.2	915.8	901.5	887.2
x1 = 0.8024	1869.64	1859.25	1848.85	1838.4	1827.87	942.9	928.9	915	901.1	887
x1 = 0.8518	2003.09	1992.14	1981.12	1970.07	1958.96	943.8	930.2	916.5	902.9	889.3
x1 = 0.9004	2147.05	2135.43	2123.78	2112.21	2100.38	947.2	933.8	920.3	907.1	893.8
x1 = 0.9502	2310.37	2298.08	2285.74	2273.36	2260.95	953.1	940.1	927.1	914.1	901.1
x1 = 1	2491.67	2478.61	2465.53	2452.42	2439.26	961.8	949.2	936.6	924	911.4
